Patent US20260262643A1, “HERBICIDAL BENZOXAZINES” (FMC CORPORATION, priority 2022, published 2026)

Experiments:
[1] = system: pigweed, palmer; test: Test C postemergence; type: in vivo, Amaranthus palmeri; settings: 10 days
Procedure, shortened: (§1)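 Pre: seeds in loam/sand, directed soil spray. Post: 1–2 leaf plants, 2–10 cm. Cmpd in non-phytotoxic solvent + surfactant. Greenhouse 10 d; visual rating vs untreated, 0 = none, 100 = complete control.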

[2] = system: corn; test: Test C preemergence; type: in vivo, Zea mays; settings: 0 to 100 scale (0 no effect, 100 complete control); for Corn plant response rating: preemergence
From the text: (§2) Seeds of plant species selected from barnyardgrass (Echinochloa crusgalli), blackgrass (Alopecurus myosuroides), corn (Zea mays), foxtail, giant (giant foxtail, Setaria faberi), green foxtail (Setaria viridis), goosegrass (Eleusine indica), kochia (Bassia scoparia), oat, wild (wild oat, Avena fatua), pigweed, palmer (palmer amaranth, palmer pigweed, Amaranthus palmeri), Pigweed, Redroot (redroot pigweed, Amaranthus retroflexus), ragweed (common ragweed, Ambrosia artemisiifolia), ryegrass, Italian ([…] ryegrass, Lolium multiflorum), soybean (Glycine max), and wheat (Triticum aestivum) were planted into a blend of loam soil and sand and treated preemergence with a directed soil spray using test chemicals formulated in a non-phytotoxic solvent mixture which included a surfactant. At the same time, plants selected from these crops and weed species and also galium (catchweed bedstraw, Galium aparine) and horseweed (Erigeron canadensis) were planted in pots containing the same blend of loam soil and sand and treated with postemergence applications of test chemicals formulated in the same manner. Plants ranged in height from 2 to 10 cm and were in the one- to two-leaf stage for the postemergence treatment. Treated plants and untreated controls were maintained in a greenhouse for 10 days, after which time all treated plants were compared to untreated controls and visually evaluated for injury. Plant response ratings, summarized in Table C, are based on a 0 to 100 scale where 0 is no effect and 100 is complete control. A dash (-) response means no test result.

[3] = system: ryegrass, Italian; test: Test C postemergence; type: in vivo, Lolium multiflorum; settings: 10 days
Procedure, shortened: as §1

[4] = system: barnyardgrass; test: Test C preemergence; type: in vivo, Echinochloa crusgalli; settings: 0 to 100 scale (0 no effect, 100 complete control); for Barnyardgrass plant response rating: preemergence
Procedure, shortened: as §1

[5] = system: horseweed; test: Test C postemergence; type: in vivo, Erigeron canadensis; settings: 10 days
Procedure, shortened: as §1

[6] = system: green foxtail; test: Test C preemergence; type: in vivo, Setaria viridis; settings: 0 to 100 scale (0 no effect, 100 complete control); for Foxtail, Green plant response rating: preemergence
Procedure, shortened: as §1

[7] = system: blackgrass; test: Test C preemergence; type: in vivo, Alopecurus myosuroides; settings: 0 to 100 scale (0 no effect, 100 complete control); for Blackgrass plant response rating: preemergence
Procedure, shortened: as §1

[8] = system: pigweed, palmer; test: Test C preemergence; type: in vivo, Amaranthus palmeri; settings: 0 to 100 scale (0 no effect, 100 complete control); for Pigweed, Palmer plant response rating: preemergence
Procedure, shortened: as §1

[9] = system: wheat; test: Test C preemergence; type: in vivo, Triticum aestivum; settings: 0 to 100 scale (0 no effect, 100 complete control); for Wheat plant response rating: preemergence
From the text: as §2

[10] = system: oat, wild; test: Test C postemergence; type: in vivo, Avena fatua; settings: 10 days
From the text: as §2

[11] = system: soybean; test: Test C postemergence; type: in vivo, Glycine max; settings: 10 days
From the text: as §2

[12] = system: ragweed; test: Test C preemergence; type: in vivo, Ambrosia artemisiifolia; settings: 0 to 100 scale (0 no effect, 100 complete control); for Ragweed plant response rating: preemergence
Procedure, shortened: as §1

[13] = system: kochia; test: Test C postemergence; type: in vivo, Bassia scoparia; settings: 10 days
Procedure, shortened: as §1

[14] = system: ryegrass, Italian; test: Test C preemergence; type: in vivo, Lolium multiflorum; settings: 0 to 100 scale (0 no effect, 100 complete control); for Ryegrass, Italian plant response rating: preemergence
Procedure, shortened: as §1

[15] = system: kochia; test: Test C preemergence; type: in vivo, Bassia scoparia; settings: 0 to 100 scale (0 no effect, 100 complete control); for Kochia plant response rating: preemergence
Procedure, shortened: as §1

[16] = system: green foxtail; test: Test C postemergence; type: in vivo, Setaria viridis; settings: 10 days
Procedure, shortened: as §1

[17] = system: wheat; test: Test C postemergence; type: in vivo, Triticum aestivum; settings: 10 days
From the text: as §2

[18] = system: soybean; test: Test C preemergence; type: in vivo, Glycine max; settings: 0 to 100 scale (0 no effect, 100 complete control); for Soybean plant response rating: preemergence
From the text: as §2

[19] = system: ragweed; test: Test C postemergence; type: in vivo, Ambrosia artemisiifolia; settings: 10 days
Procedure, shortened: as §1

[20] = system: blackgrass; test: Test C postemergence; type: in vivo, Alopecurus myosuroides; settings: 10 days
Procedure, shortened: as §1

[21] = system: barnyardgrass; test: Test C postemergence; type: in vivo, Echinochloa crusgalli; settings: 10 days
Procedure, shortened: as §1

[22] = system: galium; test: Test C postemergence; type: in vivo, Galium aparine; settings: 10 days
Procedure, shortened: as §1

[23] = system: corn; test: Test C postemergence; type: in vivo, Zea mays; settings: 10 days
From the text: as §2

[24] = system: oat, wild; test: Test C preemergence; type: in vivo, Avena fatua; settings: 500 g ai/ha, preemergence; 0 to 100 scale (0 no effect, 100 complete control)
From the text: as §2

[25] = 125 g ai/ha, postemergence, 0 to 100 scale, 0 no effect, 100 complete control
[26] = Postemergence, 500 g ai/ha, visual 0 to 100 scale (0 no effect, 100 complete control)
[27] = Preemergence, 500 g ai/ha, visual rating after 10 days
[28] = Postemergence, 125 g ai/ha, 0 to 100 scale (0 no effect, 100 complete control)

## CCc1ncn(-c2cc(OC)cc(C(=O)N3C[C@H](C)Oc4c(Cl)cccc43)c2)n1 [Compound 164]
[1]; [25]
  Plant response rating, Pigweed, Palmer: 90
[1]; [26]
  Plant response rating, Pigweed, Palmer: 100
[2]; [27]
  Plant response rating, Corn: 30
[2]; Test C, 125 g ai/ha
  Corn plant response rating: 30
[3]; [25]
  Plant response rating, Ryegrass, Italian: 50
[3]; [26]
  Plant response rating, Ryegrass, Italian: 90
[4]; 125 g ai/ha
  Barnyardgrass plant response rating: 50
[4]; [27]
  Plant response rating, Barnyardgrass: 100
[5]; [25]
  Plant response rating, Horseweed: 20
[5]; [26]
  Plant response rating, Horseweed: 50
[6]; [27]
  Plant response rating, Foxtail, Green: 100
[6]; Test C, 125 g ai/ha
  Foxtail, Green plant response rating: 100
[7]; [27]
  Plant response rating, Blackgrass: 80
[7]; Test C, 125 g ai/ha
  Blackgrass plant response rating: 50
[8]; [27]
  Plant response rating, Pigweed, Palmer: 100
[8]; Test C, 125 g ai/ha
  Pigweed, Palmer plant response rating: 100
[9]; [27]
  Plant response rating, Wheat: 60
[9]; Test C, 125 g ai/ha
  Wheat plant response rating: 20
[10]; [25]
  Plant response rating, Oat, Wild: 30
[10]; [26]
  Plant response rating, Oat, Wild: 50
[11]; [25]
  Plant response rating, Soybean: 100
[11]; [26]
  Plant response rating, Soybean: 100
[12]; [27]
  Plant response rating, Ragweed: 60
[12]; Test C, 125 g ai/ha
  Ragweed plant response rating: 70
[13]; [25]
  Plant response rating, Kochia: 80
[13]; [26]
  Plant response rating, Kochia: 90
[14]; [27]
  Plant response rating, Ryegrass, Italian: 100
[14]; Test C, 125 g ai/ha
  Ryegrass, Italian plant response rating: 90
[15]; [27]
  Plant response rating, Kochia: 100
[15]; Test C, 125 g ai/ha
  Kochia plant response rating: 40
[16]; [25]
  Plant response rating, Foxtail, Green: 50
[16]; [26]
  Plant response rating, Foxtail, Green: 80
[17]; [25]
  Plant response rating, Wheat: 30
[17]; [26]
  Plant response rating, Wheat: 30
[18]; [27]
  Plant response rating, Soybean: 100
[18]; Test C, 125 g ai/ha
  Soybean plant response rating: 90
[19]; [25]
  Plant response rating, Ragweed: 50
[19]; [26]
  Plant response rating, Ragweed: 90
[20]; [25]
  Plant response rating, Blackgrass: 70
[20]; [26]
  Plant response rating, Blackgrass: 90
[21]; [25]
  Plant response rating, Barnyardgrass: 40
[21]; [26]
  Plant response rating, Barnyardgrass: 50
[22]; [25]
  Plant response rating, Galium: 100
[22]; [26]
  Plant response rating, Galium: 100
[23]; [25]
  Plant response rating, Corn: 30
[23]; [26]
  Plant response rating, Corn: 90

## CCOC[C@H]1CN(C(=O)c2cc(-n3cnc(C(C)C)n3)cc3c2OCO3)c2cccc(Cl)c2O1 [40 0]
[1]; [28]
  Plant response rating, Pigweed, Palmer: 100
[2]; 500 g ai/ha
  Corn plant response rating: 0
[3]; [28]
  Plant response rating, Ryegrass, Italian: 0
[4]; 500 g ai/ha
  Barnyardgrass plant response rating: 100
[5]; [28]
  Plant response rating, Horseweed: 40
[6]; 500 g ai/ha
  Foxtail, Green plant response rating: 100
[24]
  Oat, Wild plant response rating: 30
[7]; 500 g ai/ha
  Blackgrass plant response rating: 50
[8]; 500 g ai/ha
  Pigweed, Palmer plant response rating: 100
[9]; 500 g ai/ha
  Wheat plant response rating: 40
[10]; [28]
  Plant response rating, Oat, Wild: 0
[11]; [28]
  Plant response rating, Soybean: 20
[12]; 500 g ai/ha
  Ragweed plant response rating: 70
[13]; [28]
  Plant response rating, Kochia: 70
[14]; 500 g ai/ha
  Ryegrass, Italian plant response rating: 90
[15]; 500 g ai/ha
  Kochia plant response rating: 90
[16]; [28]
  Plant response rating, Foxtail, Green: 20
[17]; [28]
  Plant response rating, Wheat: 20
[18]; 500 g ai/ha
  Soybean plant response rating: 100
[19]; [28]
  Plant response rating, Ragweed: 60
[20]; [28]
  Plant response rating, Blackgrass: 40
[21]; [28]
  Plant response rating, Barnyardgrass: 30
[23]; [28]
  Plant response rating, Corn: 30
